Laboratory results taken from patent US12421522B2, “Modulation of transgene expression in plants” (CORTEVA AGRISCIENCE LLC, priority 2016, dated 2025).

Key:
soybean tissues [1] = assay: miRNA expression profiling of miR1512 and miR3522 in soybean tissues; conditions: for relative expression level, 5 mm seed: soybean 5 mm seed; for relative expression level, Hypocotyl: soybean hypocotyl; for relative expression level, Leaf: soybean leaf; for relative expression level, Pod: soybean pod; for relative expression level, Root: soybean root
soybean tissues [2] = assay: as above; conditions: for relative expression level, 3 mm seed: soybean 3 mm seed; for relative expression level, Cotyledons: soybean cotyledons; for relative expression level, Embryo axis: soybean embryo axis; for relative expression level, Flower: soybean flower; for relative expression level, Pods from 5 mm seeds: soybean pods from 5 mm seeds; for relative expression level, Root tip: soybean root tip; for relative expression level, Seed coat: soybean seed coat; for relative expression level, Stem: soybean stem
Experimental: Small RNA Library Construction and Sequencing: Small RNA library construction was carried out using Illumina's TruSeq Small RNA sample preparation kit according to the manufacturer's recommendations. Briefly, RNA 3′ and RNA 5′ adapters were sequentially ligated onto 1 μg of high-quality purified Small RNA sample using truncated T4 RNA Ligase 2 and T4 RNA Ligase respectively. The small RNA fragments were then copied into first strand cDNA using SuperScript II reverse transcriptase. The cDNA was converted into double stranded cDNA (ds cDNA) with PCR using two primers that respectively anneal to the ends of 3′ and 5′ adapters. This process selectively enriches those fragments that have adapter molecules on both ends. The amplified cDNA construct is then purified on a 6% PAGE gel, normalized to 2 nM concentration, denatured with sodium hydroxide, and diluted in hybridization buffer for loading onto a Hiseq flow cell. Cluster generation, primer hybridization and sequencing reactions were carried out according to Illumina's recommended protocol.
Given the variation in expression among different soybean tissues, miR1512 and miR3522 recognition sites were selected to exemplify tissue-specific transgene expression modulation in a dicot plant.
Table 1. miRNA microarray expression profiling of miR1512 and miR3522 in soybean tissues. Numbers represent relative expression levels.

| Substance | miRNA expression (in words) (soybean tissues [1]; leaves and other vegetative tissue) | miRNA expression (in words) (soybean tissues [1]; root) | miRNA expression (in words) (soybean tissues [1]; seed and seed coat) | relative expression level, 5 mm seed (soybean tissues [1]) | relative expression level, Hypocotyl (soybean tissues [1]) | relative expression level, Leaf (soybean tissues [1]) | relative expression level, Pod (soybean tissues [1]) | relative expression level, Root (soybean tissues [1]) | relative expression level, 3 mm seed (soybean tissues [2]) | relative expression level, Cotyledons (soybean tissues [2]) | relative expression level, Embryo axis (soybean tissues [2]) | relative expression level, Flower (soybean tissues [2]) | relative expression level, Pods from 5 mm seeds (soybean tissues [2]) | relative expression level, Root tip (soybean tissues [2]) | relative expression level, Seed coat (soybean tissues [2]) | relative expression level, Stem (soybean tissues [2]) | miRNA expression (in words) (soybean tissues [1]; all tissues examined except the root tissue) |
| --- | --- | --- | --- | --- | --- | --- | --- | --- | --- | --- | --- | --- | --- | --- | --- | --- | --- |
| miR1512: endogenous soybean micro-RNA, exemplary miR1512 RNA UAACUGAACAUUCUUAGAGCAU (expressed or natural sequence) | very low expression | medium expression | high levels | 183 | 0 | 0 | 1854 | 0 | 10427 | 70 | 20 | 79 | 23938 | 3118 | 13532 | 15 | – |
| miR3522: endogenous soybean micro-RNA, exemplary miR3522 RNA UGAGACCAAAUGAGCAGCUGA (expressed or natural sequence) | – | – | – | 30139 | 1310 | 15350 | 405 | 399 | 8958 | 26265 | 3200 | 18509 | 1351 | 649 | 2551 | 3180 | high or medium levels |
